Results reported in patent US20230365561A1, “BETA-LACTAMASE INHIBITORS AND THEIR PREPARATION” (NINGXIA ACADEMY OF AGRICUL TURE AND FORESTRY SCIENCES, priority 2020, published 2023).
Structures can show the parent of a compound that is named as a salt. Where two headings read alike, the source gives them in different places.

Tests used:
Format in all cases: cell-based
E. coli 8739 (strain 2) = assay: MIC by broth microdilution (alone and in combination with meropenam), strain 2; conditions: Escherichia coli, compound alone
Procedure, shortened: (§1)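 Meropenem was diluted two-fold (0.125-64 mg/L final) in cation-adjusted Mueller-Hinton Broth II, with or without a constant 4 µg/mL of test compound. Bacteria were added at roughly 5x10^5 CFU/mL, plates incubated 37° C for 18-24 h, and growth inspected visually for the MIC.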

[1] = tested on: A. baumannii 19606 (strain 8); assay: MIC by broth microdilution (alone and in combination with meropenam), strain 8; conditions: Acinetobacter baumannii, compound alone
Procedure, shortened: as §1

[2] = tested on: P. aeruginosa 9027 (strain 10); assay: MIC by broth microdilution (alone and in combination with meropenam), strain 10; conditions: Pseudomonas aeruginosa, compound alone
Procedure, shortened: as §1

[3] = tested on: A. baumannii clinical isolate (strain 7); assay: MIC by broth microdilution (alone and in combination with meropenam), strain 7; conditions: Acinetobacter baumannii, compound alone
Procedure, shortened: as §1

[4] = tested on: K. pneumoniae 700603 (strain 4); assay: MIC by broth microdilution (alone and in combination with meropenam), strain 4; conditions: Klebsiella pneumoniae, compound alone
Procedure, shortened: as §1

[5] = tested on: K. pneumoniae clinical isolate (strain 3); assay: MIC by broth microdilution (alone and in combination with meropenam), strain 3; conditions: Klebsiella pneumoniae, compound alone
Procedure, shortened: as §1

[6] = tested on: E. cloacae 700323 (strain 6); assay: MIC by broth microdilution (alone and in combination with meropenam), strain 6; conditions: Enterobacter cloacae, compound alone
Procedure, shortened: as §1

[7] = tested on: P. aeruginosa clinical isolate (strain 9); assay: MIC by broth microdilution (alone and in combination with meropenam), strain 9; conditions: Pseudomonas aeruginosa, compound alone
Procedure, shortened: as §1

[8] = tested on: E. coli clinical isolate (strain 1); assay: MIC by broth microdilution (alone and in combination with meropenam), strain 1; conditions: Escherichia coli, compound alone
Procedure, shortened: as §1

[9] = tested on: E. cloacae clinical isolate (strain 5); assay: MIC by broth microdilution (alone and in combination with meropenam), strain 5; conditions: Enterobacter cloacae, compound alone
Procedure, shortened: as §1

[10] = read-out: MIC, antibacterial activity of example alone

Measured: MIC

CC(=O)N1CC[C@H](C(=O)NC(=N)[C@@H]2CC[C@@H]3CN2C(=O)N3OS(=O)(=O)[O-])C1.[Na+] [Ex.30, Sodium (2S,5R)-2-(N-((S)-1-acetylpyrrolidine-3-carbonyl)carbamimidoyl)-7-oxo-1,6-diazabicyclo[3.2.1]octan-6-yl Sulfate]
> 64 µg/mL: E. coli 8739 (strain 2); [10] | [1]; [10] | [2]; [10] | [3]; [10] | [4]; [10] | [5]; [10] | [6]; [10] | [7]; [10] | [8]; [10] | [9]; [10]

N=C(NC(=O)CN)[C@@H]1CC[C@@H]2CN1C(=O)N2OS(=O)(=O)[O-].[Na+] [Ex.15, Sodium (2S,5R)-2-(N-glycylcarbamimidoyl)-7-oxo-1,6-diazabicyclo[3.2.1]octan-6-yl Sulfate]
> 64 µg/mL: E. coli 8739 (strain 2); [10] | [1]; [10] | [2]; [10] | [3]; [10] | [4]; [10] | [5]; [10] | [6]; [10] | [7]; [10] | [8]; [10] | [9]; [10]

N=C(NC(=O)c1ccc(C(F)(F)F)nc1)[C@@H]1CC[C@@H]2CN1C(=O)N2OS(=O)(=O)[O-].[Na+] [Ex.6, Sodium (2S,5R)-7-oxo-2-(N-(6-(trifluoromethyl)nicotinoyl)carbamimidoyl)-1,6-diazabicyclo[3.2.1]octan-6-yl Sulfate]
> 64 µg/mL: E. coli 8739 (strain 2); [10] | [1]; [10] | [2]; [10] | [3]; [10] | [4]; [10] | [5]; [10] | [6]; [10] | [7]; [10] | [8]; [10] | [9]; [10]

N=C(N)NOCCCC(=O)NC(=N)[C@@H]1CC[C@@H]2CN1C(=O)N2OS(=O)(=O)O [Ex.47, (2S,5R)-2-(N-(4-(guanidinooxy)butanoyl)carbamimidoyl)-7-oxo-1,6-diazabicyclo[3.2.1]octan-6-yl Hydrogen Sulfate]
> 64 µg/mL: E. coli 8739 (strain 2); read-out: MIC | [1]; read-out: MIC | [2]; read-out: MIC | [3]; read-out: MIC | [4]; read-out: MIC | [5]; read-out: MIC | [6]; read-out: MIC | [7]; read-out: MIC | [8]; read-out: MIC | [9]; read-out: MIC

CC(=O)N1CCC[C@@H](C(=O)NC(=N)[C@@H]2CC[C@@H]3CN2C(=O)N3OS(=O)(=O)[O-])C1.[Na+] [Ex.27, Sodium (2S,5R)-2-(N-((R)-1-acetylpiperidine-3-carbonyl)carbamimidoyl)-7-oxo-1,6-diazabicyclo[3.2.1]octan-6-yl Sulfate]
> 64 µg/mL: E. coli 8739 (strain 2); [10] | [1]; [10] | [2]; [10] | [3]; [10] | [4]; [10] | [5]; [10] | [6]; [10] | [7]; [10] | [8]; [10] | [9]; [10]

CCC(=O)NC(=N)[C@@H]1CC[C@@H]2CN1C(=O)N2OS(=O)(=O)[O-].[Na+] [Ex.3, Sodium (2S,5R)-7-oxo-2-(N-propionylcarbamimidoyl)-1,6-diazabicyclo[3.2.1]octan-6-yl Sulfate]
> 64 µg/mL: E. coli 8739 (strain 2); [10] | [1]; [10] | [2]; [10] | [3]; [10] | [4]; [10] | [5]; [10] | [6]; [10] | [7]; [10] | [8]; [10] | [9]; [10]
